Tests used:
Assay in all cases: Transient transfection (transactivation) assay in CV-1 cells, GAL4-PPAR chimera, luciferase reporter
Assay type in all cases: cell-based
PPAR alpha = molecular target: T1, PPAR alpha (Homo sapiens, UniProt Q07869)
T1 construct: expressed in transfected cells; host or cells: CV-1 cells
T1 sequence (Q07869 239-466 limits assumed): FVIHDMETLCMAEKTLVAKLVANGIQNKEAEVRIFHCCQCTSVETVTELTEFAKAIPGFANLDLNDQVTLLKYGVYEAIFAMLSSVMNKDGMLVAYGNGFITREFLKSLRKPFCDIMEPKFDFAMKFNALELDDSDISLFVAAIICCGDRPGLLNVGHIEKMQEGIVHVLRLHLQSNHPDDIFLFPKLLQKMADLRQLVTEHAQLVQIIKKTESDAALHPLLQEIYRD
Text: Compounds may be screened for functional potency in transient transfection assays in CV-1 cells or other cell types for their ability to activate the PPAR subtypes (transactivation assay). A previously established chimeric receptor system was utilized to allow comparison of the relative transcriptional activity of the receptor subtypes on the same synthetic response element and to prevent endogenous receptor activation from complicating the interpretation of results. See, for example; Lehmann, J. M.; Moore, L. B.; Smith-Oliver, T. A; Wilkinson, W. O.; Willson, T. M.; Kliewer, S. A., An antidiabetic thiazolidinedione is a high affinity ligand for peroxisome proliferatur-activated receptor γ (PPARγ), J. Biol. Chem., 1995, 270, 12953-6. The ligand binding domains for murine and human PPAR-alpha, PPAR-gamma, and PPAR-delta are each fused to the yeast transcription factor GAL4 DNA binding domain. CV-1 cells were transiently transfected with expression vectors for the respective PPAR chimera along with a reporter construct containing four or five copies of the GAL4 DNA binding site driving expression of luciferase. After 8-16 h, the cells are replated into multi-well assay plates and the media is exchanged to phenol-red free DME medium supplemented with 5% delipidated calf serum. 4 hours after replating, cells were treated with either compounds or 1% DMSO for 20-24 hours. Luciferase activity was then assayed with Britelite (Perkin Elmer) following the manufacturer's protocol and measured with either the Perkin Elmer Viewlux or Molecular Devices Acquest Xsee, for example, Kliewer, S. A., et. al. Cell 1995, 83, 813-819). Rosiglitazone is used as a positive control in the hPPAR-γ assay. Wy-14643 and GW7647 is used as a positive control in the hPPAR-α assay. GW501516 is used as the positive control in the hPPAR-δ assay.
Compounds of Examples 1-233 were assayed to measure their biological activity with respect to their EC50 values and efficacy for modulating PPAR-alpha, PPAR-gamma, and PPAR-delta as set forth in Table 3.

PPAR delta = molecular target: T2, PPAR delta (Homo sapiens, UniProt Q03181)
T2 construct: expressed in transfected cells; host or cells: CV-1 cells
T2 sequence (Q03181 211-439 limits assumed): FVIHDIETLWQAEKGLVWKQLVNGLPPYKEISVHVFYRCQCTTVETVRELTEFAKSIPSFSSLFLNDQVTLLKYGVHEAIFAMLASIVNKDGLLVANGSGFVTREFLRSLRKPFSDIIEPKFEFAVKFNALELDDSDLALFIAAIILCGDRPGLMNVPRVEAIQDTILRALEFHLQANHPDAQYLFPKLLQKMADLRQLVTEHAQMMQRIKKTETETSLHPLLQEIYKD

PPAR gamma = molecular target: T3, PPAR gamma (Homo sapiens, UniProt P37231)
T3 construct: expressed in transfected cells; host or cells: CV-1 cells
T3 sequence (P37231 238-503 limits assumed): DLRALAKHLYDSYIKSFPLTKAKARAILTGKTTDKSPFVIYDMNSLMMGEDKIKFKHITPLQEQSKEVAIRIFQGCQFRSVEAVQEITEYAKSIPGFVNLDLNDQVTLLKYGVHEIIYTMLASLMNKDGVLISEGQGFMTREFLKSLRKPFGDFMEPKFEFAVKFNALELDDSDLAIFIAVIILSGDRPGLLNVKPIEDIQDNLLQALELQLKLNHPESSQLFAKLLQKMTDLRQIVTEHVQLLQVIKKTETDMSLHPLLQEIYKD

Row | EC50 (PPAR alpha) | EC50 (PPAR delta) | EC50 (PPAR gamma) | PPAR delta EC50 (PPAR delta) | PPAR gamma EC50 (PPAR gamma) | Compound
1 | 5 to 100 µM | < 5 µM | < 5 µM |  |  | Cc1ccc(S(=O)(=O)N2CCN(c3cccc(C(F)(F)F)n3)CC2)cc1CC(=O)O [Example 36, {2-Methyl-5-[4-(6-trifluoromethyl-pyridin-2-yl)-piperazine-1-sulfonyl]-phenyl}-acetic acid]
2 | > 100 µM | < 5 µM | > 100 µM |  |  | COC(=O)[C@@H]1CN(c2ccc(C(F)(F)F)cn2)CCN1S(=O)(=O)c1ccc(C)c(CC(=O)O)c1 [Example 37, (S)-1-(3-Carboxymethyl-4-methyl-benzenesulfonyl)-4-(S-trifluoromethyl-pyridin-2-yl)-piperazine-2-carboxylic acid methyl ester]
3 | > 100 µM | < 5 µM | < 5 µM |  |  | Cc1ccc(S(=O)(=O)N2CCN(c3ccc(C(F)(F)F)cn3)C(C)(C)C2)cc1CC(=O)O [Example 38, {5-[3,3-Dimethyl-4-(5-trifluoromethyl-pyridin-2-yl)-piperazine-1-sulfonyl]-2-methyl-phenyl}-acetic acid]
4 | > 100 µM | < 5 µM | < 5 µM |  |  | Cc1ccc(S(=O)(=O)N2CCN(c3ccc(C(F)(F)F)cn3)CC2(C)C)cc1CC(=O)O [Example 39, {5-[2,2-Dimethyl-4-(5-trifluoromethyl-pyridin-2-yl)-piperazine-1-sulfonyl]-2-methyl-phenyl}-acetic acid]
5 | > 100 µM | 5 to 100 µM | > 100 µM |  |  | COC[C@@H]1CN(S(=O)(=O)c2ccc(C)c(CC(=O)O)c2)CCN1c1ccc(C(F)(F)F)cn1 [Example 40]
6 | > 100 µM | < 5 µM | 5 to 100 µM |  |  | COC(=O)[C@H]1CN(S(=O)(=O)c2ccc(C)c(CC(=O)O)c2)CCN1c1ccc(C(F)(F)F)cn1 [Example 41, (R)-4-(3-Carboxymethyl-4-methyl-benzenesulfonyl)- -(5-trifluoromethyl-pyridin-2-yl)-piperazine-2-carboxylic acid methyl ester]
7 | > 100 µM | < 5 µM | 5 to 100 µM |  |  | COC(=O)[C@@H]1CN(S(=O)(=O)c2ccc(C)c(CC(=O)O)c2)CCN1c1ccc(C(F)(F)F)cn1 [Example 42, (S)-4-(3-Carboxymethyl-4-methyl-benzenesulfonyl)-1-(5-trifluoromethyl-pyridin-2-yl)-piperazine-2-carboxylic acid methyl ester]
8 | > 100 µM | > 100 µM | > 100 µM |  |  | Cc1ccc(S(=O)(=O)N2CCC(c3nccs3)CC2)cc1CC(=O)O [Example 43, [2-Methyl-5-(4-thiazol-2-yl-piperidine-1-sulfonyl)-phenyl]-acetic acid]
9 | < 5 µM | < 5 µM | < 5 µM |  |  | Cc1ccc(S(=O)(=O)N2CCN(c3ncc(I)cn3)CC2)cc1CC(=O)O [Example 44, {5-[4-(5-Iodo-pyrimidin-2-yl)-piperazine-1-sulfonyl]-2-methyl-phenyl}-acetic acid]
10 | 5 to 100 µM | < 5 µM | 5 to 100 µM |  |  | Cc1ccc(S(=O)(=O)N2CC=C(c3ccc(C(F)(F)F)cc3)CC2)cc1CC(=O)O [Example 45, {2-Methyl-5-[4-(4-trifluoromethyl-phenyl)-3,6-dihydro-2H-pyridine-1-sulfonyl]-phenyl}-acetic acid]
11 | > 100 µM | > 100 µM | 5 to 100 µM |  |  | Cc1ccc(S(=O)(=O)N2CCC(c3nc(C(F)(F)F)cs3)CC2)cc1CC(=O)O [Example 46, {2-Methyl-5-[4-(4-trifluoromethyl-thiazol-2-yl)-piperidine-1-sulfonyl]-phenyl}-acetic acid]
12 | > 100 µM | 5 to 100 µM | 5 to 100 µM |  |  | Cc1ccc(S(=O)(=O)N2CCN(c3ncccn3)CC2)cc1CC(=O)O [Example 47]
13 | > 100 µM |  | 5 to 100 µM | B/C |  | Cc1ccc(S(=O)(=O)N2CCC(c3ccc(C(F)(F)F)cc3)CC2)cc1CC(=O)O [Example 48, {2-Methyl-5-[4-(4-trifluoromethyl-phenyl)-piperidine-1-sulfonyl]-phenyl}-acetic acid]
14 | > 100 µM | 5 to 100 µM | 5 to 100 µM |  |  | Cc1ccc(S(=O)(=O)N2CCC(c3ccc(Cl)c(Cl)c3)CC2)cc1CC(=O)O [Example 49, {5-[4-(3,4-Dichloro-phenyl)-piperidine-1-sulfonyl]-2-methyl-phenyl)-acetic acid]
15 | > 100 µM | 5 to 100 µM | 5 to 100 µM |  |  | Cc1ccc(S(=O)(=O)N2CCN(c3nc(Cl)cs3)CC2)cc1CC(=O)O [Example 50, {5-[4-(4-Chloro-thiazol-2-yl)-piperazine-1-sulfonyl]-2-methyl-phenyl}-acetic acid]
16 | 5 to 100 µM | < 5 µM | < 5 µM |  |  | Cc1ccc(S(=O)(=O)N2CCN(c3nc(Cl)c(Cl)s3)CC2)cc1CC(=O)O [Example 51, {5-[4-(4,5-Dichloro-thiazol-2-yl)-piperazine-1-sulfonyl]-2-methyl-phenyl}-acetic acid]
17 | > 100 µM | 5 to 100 µM | 5 to 100 µM |  |  | Cc1ccc(S(=O)(=O)N2CCN(c3nc(C(F)(F)F)cs3)CC2)cc1CC(=O)O [Example 53, {2-Methyl-5-[4-(4-trifluoromethyl-thiazol-2-yl)-piperazine-1-sulfonyl]-phenyl}-acetic acid]
18 | < 5 µM | < 5 µM | < 5 µM |  |  | Cc1ccc(S(=O)(=O)N2CCN(c3ncc(C(F)(F)F)cc3Cl)CC2)cc1CC(=O)O [Example 54, {5-[4-(3-Chloro-5-trifluoromethyl-pyridin-2-yl)-piperazine-1-sulfonyl]-2-methyl-phenyl}-acetic acid]
19 | 5 to 100 µM | < 5 µM | 5 to 100 µM |  |  | Cc1ccc(S(=O)(=O)N2CCN(c3ncc(Br)s3)CC2)cc1CC(=O)O [Example 55, {5-[4-(5-Bromo-thiazol-2-yl)-piperazine-1-sulfonyl]-2-methyl-phenyl}-acetic acid]
20 | > 100 µM | < 5 µM | 5 to 100 µM |  |  | Cc1ccc(S(=O)(=O)N2CCN(c3ccc([N+](=O)[O-])cn3)CC2)cc1CC(=O)O [Example 56, {2-Methyl-5-[4-(5-nitro-pyridin-2-yl)-piperazine-1-sulfonyl]-phenyl}-acetic acid]
21 | 5 to 100 µM | < 5 µM | < 5 µM |  |  | Cc1ccc(S(=O)(=O)N2CCN(c3ncc(Cl)cn3)CC2)cc1CC(=O)O [Example 57, {5-[4-(5-Chloro-pyrimidin-2-yl)-piperazine-1-sulfonyl]-2-methyl-phenyl}-acetic acid]
22 | 5 to 100 µM | < 5 µM | < 5 µM |  |  | Cc1ccc(S(=O)(=O)N2CCN(c3ncc(Br)cn3)CC2)cc1CC(=O)O [Example 58, {5-[4-(5-Bromo-pyrimidin-2-yl)-piperazine-1-sulfonyl]-2-methyl-phenyl}-acetic acid]
23 | < 5 µM | < 5 µM | < 5 µM |  |  | Cc1ccc(S(=O)(=O)N2CCN(c3ncc(C(F)(F)F)cn3)CC2)cc1CC(=O)O [Example 59, {2-Methyl-5-[4-(5-trifluoromethyl-pyrimidin-2-yl)-piperazine-1-sulfonyl]-phenyl}-acetic acid]
24 | > 100 µM | < 5 µM | < 5 µM |  |  | Cc1ccc(S(=O)(=O)N2CCN(c3ccc(Br)cn3)CC2)cc1CC(=O)O [Example 61, {5-[4-(5-Bromo-pyridin-2-yl)-piperazine-1-sulfonyl]-2-methyl-phenyl}-acetic acid]
25 | > 100 µM | < 5 µM |  |  | B/C | Cc1ccc(S(=O)(=O)N2CCN(c3ccc(Cl)cn3)CC2)cc1CC(=O)O [Example 62, {5-[4-(5-Chloro-pyridin-2-yl)-piperazine-1-sulfonyl]-2-methyl-phenyl}-acetic acid]

Reference: US20050234046A1 (Kalypsys, Inc., priority 2004, published 2005)
